Data on six compounds can be found in ChEMBL document CHEMBL1201862, “PubChem BioAssay data set” (2004).

The subject of assay [1] is Vero. Nature of the assay: cells. Format: functional. To be noted: Chlorocebus sabaeus.
Assay [2] is described as follows: HEp-2 cell cytotoxicity, dose response, cytotoxicity control for RSV inhibitor project, HTS (AID 2410). Format: functional. The following applies: human respiratory syncytial virus.
Assay [3] can be described thus: inhibitors of firefly luciferase expression or activity, dose response, H4 neuroglioma cells, luminescence (AID 1990). The assay is classed as functional, cell-based.
Assay [4] can be described thus: inhibitors of SNCA 5'UTR-driven reporter translation, confirmation, H4 neuroglioma cells, luminescence (AID 1988). The assay is classed as functional, cell-based.
Assay [5] is described as follows: Luminescence Cell-Based Dose Response HTS to Identify Inhibitors of 5'UTR Stem-Loop Driven Prion Protein mRNA Translation in H4 Neuroglioblastoma Cells. [Related pubchem assays: 1827 (Project Summary), 1813 (Primary HTS)]. Format: functional.
Assay [6] has as its system Vero. Put plainly: cells. To be noted: Chlorocebus sabaeus. Format: functional, cell-based.
Assay [7] deals with T1, Disintegrin and metalloproteinase domain-containing protein 17 (Homo sapiens, UniProt P78536). Nature of the assay: exosite inhibitors of ADAM17, dose response, biochemical (AID 743260).
T1 sequence (P78536 whole entry, the tested form may be a part): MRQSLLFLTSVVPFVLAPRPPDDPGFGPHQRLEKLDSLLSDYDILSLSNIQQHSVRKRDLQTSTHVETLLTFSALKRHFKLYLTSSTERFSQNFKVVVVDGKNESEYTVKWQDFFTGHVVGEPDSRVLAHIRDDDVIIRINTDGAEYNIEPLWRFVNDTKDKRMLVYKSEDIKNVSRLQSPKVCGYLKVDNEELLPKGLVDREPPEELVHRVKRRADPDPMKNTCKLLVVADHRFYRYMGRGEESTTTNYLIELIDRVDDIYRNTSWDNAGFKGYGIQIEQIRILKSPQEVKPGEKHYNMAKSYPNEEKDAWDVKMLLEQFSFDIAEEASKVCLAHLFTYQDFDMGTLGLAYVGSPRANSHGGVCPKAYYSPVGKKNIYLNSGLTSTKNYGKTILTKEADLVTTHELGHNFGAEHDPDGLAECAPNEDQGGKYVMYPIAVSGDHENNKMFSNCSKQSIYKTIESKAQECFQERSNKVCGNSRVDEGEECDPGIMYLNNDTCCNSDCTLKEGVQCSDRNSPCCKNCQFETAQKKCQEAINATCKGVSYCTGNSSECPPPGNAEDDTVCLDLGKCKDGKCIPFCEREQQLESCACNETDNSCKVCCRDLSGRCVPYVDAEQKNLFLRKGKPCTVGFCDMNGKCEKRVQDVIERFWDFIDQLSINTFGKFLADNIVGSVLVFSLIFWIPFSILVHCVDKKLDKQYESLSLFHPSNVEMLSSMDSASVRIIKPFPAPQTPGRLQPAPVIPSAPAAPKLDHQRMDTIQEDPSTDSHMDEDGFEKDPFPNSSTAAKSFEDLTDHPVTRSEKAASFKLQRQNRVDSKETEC
A short description of assay [8]: ADAM10 protease inhibitors, dose response, selectivity assay for ADAM17 exosite inhibitor project, biochemical, FRET peptide substrate, recombinant human ADAM10 (AID 743259).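 Note: ADAM10 enzyme cleaving a FRET peptide substrate.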
The nature of assay [9]: ADAM10 inhibitors, peptide cleavage, dose response, biochemical, QFRET (AID 743254).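 Note: ADAM10 enzyme with the DM2 quenched FRET peptide as substrate; EDANS fluorescence gain as the protease cuts the substrate; inhibitor potency against ADAM10 proteolytic activity.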
Assay [10] concerns the target T1, Disintegrin and metalloproteinase domain-containing protein 17. Put plainly: ADAM17 protease inhibitors, dose response, counter-screen for ADAM10 exosite inhibitor project, biochemical, quenched FRET substrate (AID 743253). In general terms: A counterscreen serves to expose hits that act by an unwanted route or on another target.
Assay [11] concerns the target T2, Oxysterols receptor LXR-beta (Homo sapiens, UniProt P55055).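 Note: Cell-based luminescence dose-response assay of agonist activity at LXR, run as a confirmatory counterscreen to a daf-12 agonist screen; HEK293 cells with Gal4-LXR fusion and GAL4-driven luciferase reporter; agonist potency from rising luciferase signal of a Gal4-LXR reporter.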
T2 sequence (P55055 whole entry): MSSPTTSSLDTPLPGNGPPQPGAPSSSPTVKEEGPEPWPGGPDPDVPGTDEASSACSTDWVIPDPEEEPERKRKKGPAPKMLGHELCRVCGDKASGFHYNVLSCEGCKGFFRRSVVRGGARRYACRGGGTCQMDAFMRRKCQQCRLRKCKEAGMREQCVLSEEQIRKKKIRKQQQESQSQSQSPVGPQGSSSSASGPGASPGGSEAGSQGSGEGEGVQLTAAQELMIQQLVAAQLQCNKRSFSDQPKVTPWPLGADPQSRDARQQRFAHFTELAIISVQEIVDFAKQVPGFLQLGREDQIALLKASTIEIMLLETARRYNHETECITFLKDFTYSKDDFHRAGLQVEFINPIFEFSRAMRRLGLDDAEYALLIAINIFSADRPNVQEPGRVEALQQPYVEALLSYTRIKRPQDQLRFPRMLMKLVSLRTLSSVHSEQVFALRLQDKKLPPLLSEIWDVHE
Format: functional, cell-based.

The nature of assay [12]: cells.
Assay [13] can be described thus: A375 melanoma cell viability loss, dose response, counter-screen for MITF inhibitor project, CellTiter-Glo luminescence, dry powder, set 4 (AID 624364).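 Note: A375 melanoma cells are MITF independent so this is a counter screen.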 Format: functional, cell-based. To be noted: A-375.
Assay [14] in a line: A375 melanoma cell cytotoxicity, dose response, counter-screen for MITF inhibitor project, CellTiter-Glo luminescence, dry powder, set 2 (AID 624489).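 Note: actives are compounds lowering A375 viability meaning general cytotoxicity.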 To be noted: A-375. Format: functional, cell-based.
The nature of assay [15]: cells. Format: functional, cell-based.
The nature of assay [16]: IGROV1 ovarian cancer cell cytotoxicity, dose response, PAX8 inhibitor project, plate reader, dry powder samples (AID 743043). Format: functional, cell-based. The following applies: IGROV-1.
Assay [17] in a line: cytotoxicity in OVCAR4 cells, dose response, cytotoxicity control for PAX8 inhibitor project, cell-based, plate reader, dry powder, SA11 (AID 743150). Format: functional. To be noted: OVCAR-4.
A short description of assay [18]: cytotoxicity in OV-90 ovarian cancer cells, dose response, PAX8 inhibitor project, cell-based, plate reader, dry powder, SA8 (AID 743149). Format: functional.
A short description of assay [19]: HepG2 cell cytotoxicity, dose response, cytotoxicity control for Shn3 inhibitor project, CellTiter-Glo, cherry-picked (AID 624134). Format: functional, cell-based.
Assay [20] can be described thus: cytotoxicity in COV434 cells, dose response, cytotoxicity control for PAX8 inhibitor project, cell-based, plate reader, dry powder, SA7 (AID 743145). Format: functional.
The nature of assay [21]: control 3'UTR Renilla luciferase suppression, dose response, counter-screen for Shn3 inhibitor project, cell-based, Clone20-Shn3RL, cherry-picked (AID 624133). The assay is classed as functional.
Assay [22] addresses Paired box protein Pax-8 (Homo sapiens, UniProt Q06710). Put plainly: inhibitors of PAX8-driven TPO luciferase reporter, dose response, RMG-I cells, cherry-pick (AID 687027).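 Note: luciferase reporter driven by Pax8 target thyroperoxidase promoter measured by SteadyGlo luminescence.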 Format: functional, cell-based. (Reporter assays use an easily measured gene product as a stand-in for the process of interest.)
Assay [23] is described as follows: cells. Format: functional, cell-based. The source holds these as a separate data set.
Assay [24] can be described thus: cytotoxicity in COV362 ovarian cancer cells, dose response, cytotoxicity control for PAX8 inhibitor project, cell-based, plate reader, dry powder, SA12 (AID 743144). The assay is classed as functional.
Assay [25] is described as follows: PAX2 cell-based inhibition, dose response, selectivity assay for PAX8 inhibitor project, plate reader, dry powder samples (AID 743048).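 Note: HEK293 cells carrying a WT1 promoter luciferase reporter driven by expressed Pax2; potency is for inhibition of Pax2 driven reporter signal.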 Format: functional.
Assay [26] is described as follows: A2780 ovarian cancer cell cytotoxicity, dose response, cytotoxicity control, plate reader, dry powder samples (AID 743046). The assay is classed as functional, cell-based.
Assay [27] is described as follows: Shn3 3'UTR reporter inhibitors, dose response, cell-based, Clone20 osteoblasts, firefly luciferase, cherry-picked (AID 624132).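 Note: firefly luciferase luminescence from reporter carrying the Shn3 3'UTR in osteoblasts.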 The assay is classed as functional.
A short description of assay [28]: NIH:OVCAR-3 ovarian cancer cell cytotoxicity, dose response, PAX8 inhibitor project, plate reader, dry powder samples (AID 743044). Format: functional, cell-based.
Assay [29] is described as follows: cytotoxicity dependent on PAX8, dose response, cell-based, plate reader, dry powder (AID 743049). The assay is classed as functional.

As usually defined, the CC50 is the concentration giving 50% cytotoxicity. As a reminder, the EC50 is the concentration giving half of the maximal effect. As a reminder, the IC50 is the point on the concentration scale where inhibition reaches its midpoint. What is called AC50 is the concentration at which the activity in the assay is half-maximal.

The source made the active and inactive calls.

Paired box protein Pax-8, sequence (Q06710 whole entry): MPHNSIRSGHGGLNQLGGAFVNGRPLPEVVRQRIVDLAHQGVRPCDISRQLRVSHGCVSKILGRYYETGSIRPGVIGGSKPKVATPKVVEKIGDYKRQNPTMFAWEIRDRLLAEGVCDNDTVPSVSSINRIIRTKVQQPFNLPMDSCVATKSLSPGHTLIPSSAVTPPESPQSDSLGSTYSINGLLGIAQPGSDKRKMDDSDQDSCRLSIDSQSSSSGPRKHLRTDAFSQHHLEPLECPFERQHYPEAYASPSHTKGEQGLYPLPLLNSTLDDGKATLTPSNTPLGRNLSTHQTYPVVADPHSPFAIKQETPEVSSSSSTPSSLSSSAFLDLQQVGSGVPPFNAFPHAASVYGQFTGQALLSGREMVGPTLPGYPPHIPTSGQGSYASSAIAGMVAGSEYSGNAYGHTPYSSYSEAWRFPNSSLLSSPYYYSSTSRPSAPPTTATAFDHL

In the case of `COc1cc(/C=N/NC(=O)c2cc(-c3ccccc3OC(C)C)nc3ccccc23)ccc1O`, the figures for the CC50 in [1] and in assay [2] were > 25 µM (active) and 29.6 µM (active), respectively. Further, the EC50 in assay [3] is > 120 µM (not active); in assay [4], 13.7 µM (active); in assay [5], > 120 µM (not active). Further, the figures for the IC50 in assay [6], in assay [7] and in assay [8] were > 25 µM (active), > 69.5 µM (inactive) and > 69.5 µM (inactive), respectively.

In the case of `COc1cc(/C=N/OCC(=O)Nc2ccc(OC(F)F)cc2)ccc1OCc1ccccc1`, the IC50 in assay [9] and in assay [10] was > 69.5 µM (inactive) in each case.

Regarding `Cn1c(=N)n(CC(=O)c2ccccc2)c2ccccc21`, the EC50 is > 67.5 µM (inactive) in [11], 8.25 µM (inconclusive) in [5] and > 67.5 µM (inactive) in [12].

For the compound `CCC(=O)N(Cc1ccco1)c1nc(C(=O)Nc2ccc(Cl)cc2)c(C)s1`, the IC50 in assay [9] and in assay [10] was > 69.5 µM (inactive) throughout.

On to `O=C(NC1=C(c2ccc(OC(F)(F)F)cc2)C(=O)c2ccccc2C1=O)c1ccco1`, for which the values for the concentration at half-maximal activity (AC50) in [13] and in assay [14] were 32.2 µM (active) and 21.1 µM (active), respectively.

With `Cc1cc(NC(=O)CCCS(=O)(=O)c2nc(-c3cccs3)cc(C(F)(F)F)n2)no1`, the EC50 in assay [15] and in assay [23] was > 350 µM (not active) throughout. The AC50 in assay [16] was 16.4 µM (active); in [17] it was 20.8 µM (active); in assay [18], 26.3 µM (active); in assay [19], 16.3 µM (active); in assay [20], 12.1 µM (active); in assay [21], 6.46 µM (active). For the same compound, the AC50 in assay [22] was 6.85 µM (active); in assay [24], 14.3 µM (active); in [25], 17.3 µM (active); in [26] it was 10.3 µM (active); in [27], 1.73 µM (active); in [28], 15.5 µM (active). Moreover, in [29], the AC50 is 18.6 µM (active).
